# Results published in patent publication US9180107B2 (NANOPHARMACEUTICALS LLC, priority 2009, dated 2015).
# What was measured:
# [1] = tested on: Human adenoid cystic carcinoma TGS112T cells; test: [3H]-thymidine incorporation; format: cell-based
# Protocol: TGS112T cells were seeded in 24-well trays and exposed to 10% hormone-depleted FBS-supplemented medium for 2 d, then treated with 0.25% hormone-depleted FBS-supplemented medium prior to starting the experiments. Aliquots of cells were treated with T4, tetrac or nano-tetrac as indicated, as well as 1 μCi [^3H]-thymidine (final concentration, 13 nM) for 24 h. Cells were then washed twice with cold PBS. TCA (5%, 1 mL) was added and the plate was held at 4° C. for 30 min. The precipitate was washed twice with cold ethanol; 2% SDS (1 mL) was added to each well and the TCA-precipitable radioactivity was quantitated in a liquid scintillation counter.
# (§1) Human adenoid cystic carcinoma TGS112T cells were cultured in medium that contained 0.25% hormone-stripped serum for 2 d and then treated with 10^−7 M tetrac or nano-tetrac for 30 min prior institution of 10^−7 M T4 treatment for 24 h. Nuclear proteins were separated by SDS-PAGE followed by western blot analysis with proliferating-cell nuclear antigen (PCNA) antibody. Thyroid hormone-induced PCNA accumulation was inhibited by tetrac. (See FIG. 6A). […] (See FIG. 6A). Inhibition of thyroid hormone-induced proliferation was confirmed by inhibition by tetrac and nano-tetrac of thyroid hormone-induced accumulation and [^3H]-thymidine incorporation. (See FIG. 6B). […] (See FIG. 6B). […] The effect of nano-tetrac and tetrac on cell proliferation was examined by counting TGS112T cells which were treated daily with 10^−6 M tetrac or 10^−6 M nano-tetrac. […] (See FIG. 6C).
# [2] = Turnover rate (stability) of tetrac in the culture system; format: physicochemical
# Protocol: In LC/MS/MS experiments, medium samples (20 μL) were injected onto an HP 1100 series HPLC system (Agilent Technologies, Palo Alto, Calif., USA), equipped with a narrow-bore column Zorbax Eclipse XDB-C18 (5 μm, 150×2.1 mm; Agilent). Separation was performed using a mobile phase of 0.1% (v/v) acetic acid (A) and 100% acetonitrile (B), with a linear gradient of 20-60% B over 25 min. Flow rate was maintained at 0.2 mL min^−1 and elution was monitored by a diode array detector (200-600 nm). The LC effluent was then introduced into a turbo ion-spray source on a Q/STAR-XL quadruple/time-of-flight (TOF) hybrid mass spectrometer (Applied Biosystems, Foster City, Calif., USA). Negative ESI mass spectra were acquired over the range from m/z 100 to 400. The electrospray voltage was set at −4.5 kV and the source temperature was maintained at 475° C. […]
# Human glioblastoma U87MG cells were treated with different concentrations of tetrac (10^−9-10^−5M) for 7 d and tetrac was replenished daily. The turnover rate of tetrac in the culture system was measured. Tetrac detected was 75% of the original concentration after 24 h incubation in medium with 10% FBS in the absence of cells at both room temperature and 37° C. […]
# TGS112T cells = test: Cell proliferation by cell counting; format: cell-based, human; conditions: treated daily with 10^−6 M
# Protocol: FIG. 6 is a series of graphs showing the effects of tetrac and nano-tetrac in human adenoid cystic carcinoma (TGS112T). In FIG. 6A, TGS112T cancer cells were treated with 10^−7M T4 in the presence or absence of 10^−7M tetrac for 24 h. T4-induced PCNA expression was inhibited by tetrac. In FIG. 6B, TGS112T cancer cells were treated with 10^−7 M T4 in the presence or absence of 10^−7 M tetrac or nano-tetrac, daily and 1 μCi [^3H]-thymidine (final concentration, 13 nM) was added for 24 h. […] In FIG. 6C, TGS112T cells were treated daily with 10^−6 M tetrac or nano-tetrac. Cells were harvested at the time points as indicated. Total cell numbers taken after each treatment were used as indicator for tetrac- or nano-tetrac-induced anti-proliferation.
# Human adenoid cystic carcinoma TGS112T cells were cultured in medium that contained 0.25% hormone-stripped serum for 2 d and then treated with 10^−7 M tetrac or nano-tetrac for 30 min prior institution of 10^−7 M T4 treatment for 24 h. Nuclear proteins were separated by SDS-PAGE followed by western blot analysis with proliferating-cell nuclear antigen (PCNA) antibody. Thyroid hormone-induced PCNA accumulation was inhibited by tetrac. (See FIG. 6A). […] (See FIG. 6A). Inhibition of thyroid hormone-induced proliferation was confirmed by inhibition by tetrac and nano-tetrac of thyroid hormone-induced accumulation and [^3H]-thymidine incorporation. […]
# [3] = tested on: Human adenoid cystic carcinoma TGS112T cells; test: PCNA western blot (thyroid hormone-induced proliferation); format: cell-based
# From the text: The techniques have been described in a number of publications. (See Davis et al., 2006. Cancer Res. 66:7270-7275; Lin et al., 2007. Steroids. 72:180-187; Lin et al., 2008. Carcinogenesis. 29:62-69; and Davis et al., 2004. Circ Res. 94:1500-1506, each of which is herein incorporated by reference in its entirety). Nucleoproteins were separated on discontinuous SDS-PAGE (9% gels) and the proteins transferred by electroblotting to nitrocellulose membranes (Millipore, Bedford, Mass.). After blocking with 5% milk in Tris-buffered saline containing 0.1% Tween, the membranes were incubated with selected primary antibodies overnight. The secondary antibodies were either goat anti-rabbit IgG (1:1000, Dako, Carpenteria, Calif.) or rabbit anti-mouse IgG (1:1000, Dako), depending upon the origin of the primary antibody. Immunoreactive proteins were then detected by chemiluminescence.
# as §1
smiles,measurement,setting,value
"O=C(O)Cc1cc(I)c(Oc2cc(I)c(O)c(I)c2)c(I)c1 [tetrac, Tetraiodothyroacetic acid]",reduction of T4-induced thymidine incorporation,"[1]; 10^−7 M with 10^−7 M T4, 24 h",5 fold
same,effect of agent alone on thymidine incorporation,"[1]; 10^−7 M, 24 h",stimulated thymidine incorporation
same,"Tetrac detected, % of the original concentration","[2]; 24 h incubation in medium with 10% FBS, absence of cells, room temperature and 37° C.",75%
same,tetrac decay,[2]; incubated with cell cultures at 37° C.,12%
same,cell count after 7 d,TGS112T cells,3.65×10^8 cells
same,Thyroid hormone-induced PCNA accumulation,"[3]; 10^−7 M tetrac, 10^−7 M T4, 24 h",inhibited
same,Proliferation of TGS112T cells (agent alone),"[3]; 10^−7 M, 24 h",little effect alone
